# Source: patent publication US20230348506A1, “MACROCYCLIC PANTETHEINE DERIVATIVES AND USES THEREOF” (VectivBio Comet AG, priority 2019, published 2023)
# Columns and labels:
# [1] = tested on: primary adherent fibroblast cell line derived from an Methylmalonic Acidemia (MMA) patient (GM01673, Coriell Institute for Medical Research); test: Mitochondrial respiration (Seahorse XFe96, OCR), Spare Capacity AUC; assay type: cell-based, human; conditions: 10 μM compound, 1 μM FCCP for 20 cycles, relative to vehicle
# Description: The effect of the compounds of the present disclosure on mitochondrial respiration was measured with a XFe96 Extracellular Flux Analyzer (Seahorse Bioscience, Agilent Technologies) and Oxygen consumption Rate (OCR) and Extracellular acidification rate (ECAR) determined.
# Cell culture and treatments. Primary adherent fibroblasts were cultured in minimum essential medium (MEM) (Gibco, 25030081) supplemented with 2 mM L-Glutamine (Gibco, 25030081), 15% fetal bovine serum (FBS) (Gibco, 26400044) and 1% penicillin/streptomycin (Gibco, 5140122) at 37° C. and 5% CO2. Cells were collected for either passaging or experiment at ˜70-80% confluence. Cells were obtained by trypsinization and seeded at 10,000 cells/well in cell culture microplates (Seahorse Bioscience, 101085-004) and allowed to adhere for 48 hours in culture media. […]
# Determining the optimized cell density and concentrations for stress test, such as FCCP, were achieved through methods well known to those of skill in the art. After baseline measurements of OCR, cells were challenged with compounds of the present disclosure at different concentrations (10 to 50 μM) or vehicle (DMSO, 0.1%) and a post-compound baseline was recorded. OCR was measured after sequentially adding to each well 1.5 μg/ml oligomycin (inhibitor of ATP synthase Sigma-Aldrich, 753531), then maximal OCR was determined with carbonyl cyanide 4-(trifluoromethoxy) phenylhydrazone (FCCP, Sigma-Aldrich, C2920), (uncoupler of oxidative phosphorylation) and 1.0 μM of rotenone (Sigma-Aldrich, R8875) plus antimycin A (Sigma-Aldrich, A8674) (inhibitors of mitochondrial complex I and III) for determination of rotenone-antimycin insensitive respiration together with Hoechst for nuclear staining in situ when normalized to cell counts. After the analysis and nuclear staining, the XFp microplate was transferred to the Cytation 5, and the nuclear images were captured, the individual nuclei were identified and counted by BioTek Gen5 software. […]
# [2] = tested on: Methylmalonic Acidemia (MMA) Primary fibroblasts (GM01673, Coriell Institute for Medical Research); test: Measurement of total GSH and GSSG dimer (GSH/GSSG ratio); assay type: cell-based, human; conditions: 10 μM compound for 2 hours
# Description: Primary adherent fibroblasts were cultured in minimum essential medium (MEM) (Gibco, 25030081) supplemented with 2 mM L-Glutamine (Gibco, 25030081), 15% fetal bovine serum (FBS) (Gibco, 26400044) and 1% penicillin/streptomycin (Gibco, 5140122) at 37° C. and 5% CO2. Cells were collected for either passaging or experiment at ˜70-80% confluence. Cells were obtained by trypsinization and seeded in a white cell culture microplates (Thermo Fisher Scientific, 152028) for luminescent measurement. Cells were obtained by trypsinization and […] were seeded and allowed to adhere for 16-18 hours to have confluency around 70-80% in the cell well with culture media. After 24 hours prior to measurements (37° C, 5% CO2) media was changed to Dulbecco's Modified Eagle Medium (DMEM, Agilent Seahorse cat #103575-100) with the appropriate supplements (1 mM glucose, 2 mM L-glutamine, 1 mM pyruvate, 10% FBS).
# Assay was performed according to manufacturer instructions (Promega, V6612). At the end of appropriate time point, the assay requires one plate for total measurement of GSH and one plate for GSSG. For every assay a 11-point standard curve is prepared ranging from 8 μM to 0.013 μM. […] Finally, 100 μl/well of Luciferin Detection reagent were added and incubated for 15 minutes before the chemiluminescence was detected. Free GSH/GSSG ratio was calculated as (Total GSH-GSSH)/(GSSG/2). […]
smiles,measurement,setting,value
"CC1(C)COC(=O)CCC(=O)SCCNC(=O)CCNC(=O)[C@@H]1O [Compound 206, (R)-15-hydroxy-16,16-dimethyl-1-oxa-6-thia-9,13-diazacycloheptadecane-2,5,10,14-tetraone]",increase of Spare Capacity AUC,[1]; medium with 1 mM glucose,at least 50%
same,increase of Spare Capacity AUC,"[1]; medium with 10 mM glucose, 2 mM glutamine, 1 mM pyruvate",> 10%
same,increase of the GSH/GSSG ratio,[2],at least 20%
